Source: patent US9540325B2, “N1-cyclic amine-N5-substituted phenyl biguanide derivatives, methods of preparing the same and pharmaceutical composition comprising the same” (Immunomet Therapeutics, Inc., priority 2011, dated 2017)
Structures can show the parent of a compound that is named as a salt.

Key:
Format in all cases: cell-based, human
Snail = assay: EMT inhibitory effect by inhibition of Snail expression (immunoblotting) in MCF7 cells; settings: MCF7, 48 hours, untreated control = 100%
Description: Cells undergoing EMT owing to various cytokines and growth factors can acquire motility and thus move a distance to form tumors in new tissues. Therefore, the metastasis of cancer cells can be inhibited by controlling expression of EMT-related transcription factors to hinder EMT. Based on these facts, the activities of biguanide derivatives that inhibit Snail expression, which is a transcription factor inducing EMT in the MCF7 cell line derived from human breast cancer, were measured and simple experimental methods are described, as follows.
MCF7 cells derived from human breast cancer (commercially available from Korean Cell Line Bank) were cultured in a DMEM medium supplemented with 10% (v/v) fetal bovine serum (commercially available from Gibco Life Technologies (US)), put into a 6-well plate so that the number of cultured cells could amount to approximately 5×10^5 cells per well, and then incubated in an incubator supplied with 5% CO2 (culture temperature: 37° C., pH: 7.0 to 7.4). The culture media were treated with phenformin hydrochloride and the compounds synthesized in the examples at contents of 1 μM and 10 μM, respectively, and then incubated for 48 hours. Metformin hydrochloride was used as the control, and the cells were treated with 1 mM and 10 mM metformin hydrochloride. After 48 hours, the cells were lysed in a cell lysis buffer containing 10 mM Tris HCl (pH7.4), 100 mM NaCl, 1 mM EDTA, 1 mM EGTA, 1 mM NaF, 20 mM Na4P2O7, 2 mM Na3VO4, 1% TritonX-100, 10% glycerol, 0.5% deoxycholate and 1 mM PMSF. Then, 25 μg of the cell lysate was electrophoresized in an SDS-PAGE gel, and then transferred to a […] membrane (commercially available from Amersham Life Science). The membrane reacted with rat monoclonal anti-human Snail (commercially available from Cell signaling Technology) or mouse monoclonal anti-β-actin (commercially available from Santa cruz Biotechnology), and unbound antibodies were removed. In this case, anti-β-actin was used as the antibody to ensure that the amount of proteins loaded into the SDS-PAGE gel is identical. The membrane was reacted again with a secondary antibody, anti-rat IgG (commercially available from Cell signaling Technology) or anti-mouse IgG (commercially available from Santa Cruz Biotechnology). Finally, the antibody bound to the membrane was detected using an ECL Plus system (commercially available from Amersham Life Science). Also, the expression level of Snail with respect to β-actin was analyzed using a Scion image analysis program. Here, when it was assumed that the expression level of the untreated control was 100%, the expression level of the Snail by treatment with the compounds synthesized in the examples was indicated as a percentage (%).

AMPKα = assay: Measurement of AMPK activation effect (AMPKα Thr172 phosphorylation immunoassay) in MCF7 cells; settings: 24 hours
Outline: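 MCF7 cells in DMEM/10% FBS were treated 24 h with derivatives at 5, 10 and 50 μM (metformin hydrochloride control, 0.05–10 mM). AMPKα Thr172 phosphorylation was measured by immunoassay on 20 μg lysate. AC150 (concentration giving 150% activation) came from concentration–response curves, with activation also reported at fixed concentrations.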

HCT116 cells = assay: Measurement of effect of inhibiting cancer cell proliferation (MTT); settings: Homo sapiens, HCT-116, 100 μM, 48 hours, read-out: Cell Growth Inhibition (%) at 100 μM
Outline: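 HCT116 cells (~5,000/well, DMEM with 10% FBS) treated 48 h with compound at 0.39–100 μM, metformin hydrochloride control at 0.1–25 mM. Viability by MTT (3 h, formazan in DMSO, A560) relative to untreated wells; GIC50 from the viability curve, also viability at 100 μM.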

[1] = system: MCF7 cells (breast cancer stem cell, mammosphere); assay: Measurement of effect of inhibiting mammosphere formation; settings: MCF7, 8 days; for Number of Mammospheres: size 50 um or more
Excerpt: The cancer stem cells refer to cancer cells that have self-regeneration or differentiation capacity which is characteristically innate to stem cells. Here, the cancer stem cells show resistance to conventional anticancer therapy and poor prognosis. Therefore, the biguanide derivative has an effect of inhibiting cancer recurrence by inhibiting formation and proliferation of cancer stem cells, especially, breast cancer stem cells (mammosphere). Accordingly, the effect of the biguanide derivative of inhibiting breast cancer stem cell (mammosphere) formation was measured in an MCF7 cell line derived from human breast cancer forming mammospheres, and simple experimental methods are described, as follows.
MCF7 cells derived from human breast cancer were cultured (culture temperature: 37° C., pH: 7.0 to 7.4) in a DMEM medium supplemented with 10% (v/v) fetal bovine serum (commercially available from Gibco Life Technologies (US)) so that the MCF7 cells could grow to approximately 80% confluency and used in an experiment to determine an ability to form mammospheres. After MCF7 cells were made to single cells and the number of cell was counted, MCF7 cells were put in to a 24-well plate at 2,000 cells/well. […] Also, a culture media for forming mammospheres was prepared so that a serum-free DMEM/F12 medium could include 2% B27 (commercially available from Invitrogen), 20 ng/ml EGF (commercially available from Sigma), 5 μg/ml insulin (commercially available from Sigma) and 1 μg/ml hydrocortisone (commercially available from Sigma). Cells were cultured in a CO2 incubator for 24 hours and treated with each of the compounds synthesized in the examples at contents of 0.1 μM, 1 μM, 5 μM and 10 μM. Then, the cultured cells were added to the culture media for forming mammospheres so that a final volume of the culture broth could be adjusted to 1 ml. The cells were treated with the same concentrations of phenformin hydrochloride as the control and cultured in a CO2 incubator for 8 days. Thereafter, the mammosphere-forming efficiency and size of the cells were observed. After 8 days, the number of mammospheres having a size of 50 um or more was determined to calculate the mammosphere-forming efficiency (MFE (%)). The MFE (%) is calculated according to the following Equation 1.
When the cells were cultured for 8 days, MFE (%) of the cells on a plate treated with the phenformin hydrochloride and the compounds synthesized in the examples was compared with MFE (%) of the cells on a plate that was not treated with the compounds. The results are listed as the mammosphere formation inhibition rate (%) in the following Table 4, and the mammosphere-forming efficiencies of the respective compounds are shown in FIG. 1.

Row | SMILES | Snail Expression Rate (%) (Snail; 1 mM) | Snail Expression Rate (%) (Snail; 10 mM) | AMPK activation effect at 50 μM (%) (AMPKα; 50 μM, relative to untreated cells) | AMPK activation effect AC150 (AMPKα; concentration at which AMPK activation reached 150%) | inhibition at 100 µM (HCT116 cells) | Snail Expression Rate (%) (Snail; 1 μM) | Snail Expression Rate (%) (Snail; 10 μM) | MFE (%) (mammosphere-forming efficiency) ([1]; 0.1 μM) | Number of Mammospheres ([1]; 0.1 μM) | MFE (%) (mammosphere-forming efficiency) ([1]; 1 μM) | Number of Mammospheres ([1]; 1 μM) | MFE (%) (mammosphere-forming efficiency) ([1]; 5 μM) | Number of Mammospheres ([1]; 5 μM) | MFE (%) (mammosphere-forming efficiency) ([1]; 10 μM) | Number of Mammospheres ([1]; 10 μM) | inhibition at 0.1 µM ([1]; Homo sapiens, 192 h, 0.1 μM, vs untreated, read-out: Mammosphere formation inhibition rate (%)) | inhibition at 1 µM ([1]; Homo sapiens, 192 h, 1 μM, vs untreated, read-out: Mammosphere formation inhibition rate (%)) | inhibition at 5 µM ([1]; Homo sapiens, 192 h, 5 μM, vs untreated, read-out: Mammosphere formation inhibition rate (%)) | inhibition at 10 µM ([1]; Homo sapiens, 192 h, 10 μM, vs untreated, read-out: Mammosphere formation inhibition rate (%))
1 | CN(C)C(=N)N=C(N)N [Metformin hydrochloride, reference compound] | 70.3% | 13.6% | 130.0% | 188.3 µM | 1.8% | – | – | – | – | – | – | – | – | – | – | – | – | – | –
2 | [H]/N=C(/N)N/C(=N/[H])NCCc1ccccc1 [Phenformin hydrochloride, reference compound] | – | – | – | – | – | 117.6% | 53.8% | 4.2% | 84 ± 2.8 | 3.9% | 79 ± 0.7 | 5.2% | 103 ± 1.4 | 5.8% | 116 ± 19.1 | 18.4% | 23.8% | 0% | -12.1%
